From a melting point compilation (Tetko et al.; mined from patent text by program, amines drawn as free bases though some values may be those of a salt)

SMILES	melting point [°C]
COC(=O)C1=C(C)NN=C(c2cccs2)C1c1ccccc1 (stereo unspecified)	194
COc1ccccc1OCC1SCCN1C(=S)CC(C)=O (stereo unspecified)	89 to 91
Cc1c(CC(C)(C)C(=O)O)n(Cc2ccc(Cl)cc2)c2ccc(OCc3ccc(-c4ccccc4)cn3)cc12	177 to 179
CC1(COc2ccc(CC3SC(=O)NC3=O)cc2)CCC(=O)CC1 (stereo unspecified)	134 to 135
O=C(NCc1cccs1)C1(c2ccc(Cl)cc2)CCCC1	119 to 120
O=C1C=CC(c2cccc(F)c2)(c2cccc(F)c2)CC1	95
O=[N+]([O-])c1ccccc1C1=NCC(=S)Nc2sccc21	207 to 209
Cc1c(-c2ccc(OCC(=O)O)cc2)oc(=O)c(Sc2ccccc2)c1O	194 to 197
OC(CNCC(O)C1CCc2ccccc2O1)C1CCc2ccccc2O1 (stereo unspecified)	131
CCCOc1nc(N)c2ncn(C3CCCCC3)c2n1	146 to 148
NC(=NC(=O)c1nc(Cl)c(N)nc1N)NCCCCc1ccc(OCC(=O)N(CCO)CCO)cc1	114 to 116
Cc1ccc2c(c1)c(C=O)c(Cl)n2C	120 to 121
C=C[Si]12OC3CC(CC(C3)O1)O2	116
OCc1c(CO)c2sc3ccccc3n2c1-c1ccc(Cl)cc1	151 to 152
CCc1nn(C2CCCC2)c2cc(C(=O)O)ccc12	153 to 155
CC#CCOc1ccc(S(=O)[C@@H](C(=O)NO)c2ccc(OC)cc2)cc1 (stereo partly specified)	134
CC1(CF)C(=O)N(c2ccc(C#N)c(C(F)(F)F)c2)C(=O)N1CCF (stereo unspecified)	137 to 138
S=C(NCCCc1ccccc1)Nc1nccs1	126 to 128
CCOCc1ccc(C=C(C)c2ccc3c(c2)C(C)(C)CCO3)cc1	59 to 60
Cc1ccc(C(=O)NCCN(C)C)cc1-n1c(C)cc(OCc2ccccc2CNC(=O)Nc2cc(C(C)(C)C)nn2-c2ccc(Cl)c(O)c2)c(Cl)c1=O	185 to 186

SMILES	melting point [°C]
COc1ccc(CN(C)CCNc2ccc(NC(=O)c3cccc4c(=O)c5cccc(OC)c5[nH]c34)cc2)cc1OC	196
CC(O)CN(CC(C)O)C(=O)c1ccc(C(=O)N2CCN(c3ncccc3NC(C)C)CC2)cc1 (stereo unspecified)	73 to 75
COCCO[C@@H]1c2ccc3c(nc(C)n3C3CC3)c2O[C@H](c2ccccc2)[C@H]1O	183
COC(=O)c1cscc1NC(=O)COc1ccc(-c2ccccc2)cc1	132 to 135
CCOC(=O)c1c(O)c2ccccc2n(C)c1=O	67
CC(C)(CCl)c1cc(Cl)nnc1Br	79 to 81
Cc1ccc(S(=O)(=O)n2ccc3c(C=O)cccc32)cc1	144 to 146
O=C(Nc1ccc(CCc2ccc(O)c(O)c2)cc1)C(=O)c1sc2ccccc2c1O	193 to 195
CC(=NOCC=Cc1ccccc1)C(=O)O	89 to 91
CC(C)CC(S)C(=O)NC1(C(=O)NC(Cc2ccc(-c3ccc(-c4cccc5ccccc45)cc3)cc2)C(=O)O)CCCC1 (stereo unspecified)	187 to 189
O=S(=O)(Nc1c(Cl)cccc1Cl)c1nc2ncccn2n1	278 to 280
CC(C)(C)OC(=O)N1C[C@@H]2Cc3cc4ccccc4n3C[C@@H]2C1 (relative stereo)	143 to 144
COc1ccc(NC(=O)c2coc(Br)c2)cc1N1CCN(C)CC1	185 to 187
N#CCCCCOc1ccc(C=Cc2ccncc2)cc1	85 to 87
N#Cc1cnc2cc(-c3csc(CN4CCOCC4)c3)ccc2c1Nc1ccc(Oc2ccccc2)cc1	221 to 223
CCCc1c(OCCCOc2ccc(-c3c[nH]c(SCc4ccccc4)n3)c(OC)c2CCC)ccc2c1OC(C(=O)O)CC2 (stereo unspecified)	92 to 97
O=C(NC1N=C(c2ccccc2)c2ccccc2NC1=O)c1c[nH]c2ccccc12 (racemic)	265 to 268
CCOC(=O)C1CC1c1cc(=O)c2cc(-c3ccccc3)ccc2o1 (stereo unspecified)	134 to 141
CC1(C)SC2C(NC(c3ccccc3)(c3ccccc3)c3ccccc3)C(=O)N2C1c1nnn[nH]1 (stereo unspecified)	133 to 136
CCOC(=O)c1c(C)cc2[nH]c(=O)n(-c3ccccc3C(F)(F)F)c(=O)c2c1C	175 to 176

More lines, now with the values ahead:

melting point [°C]	SMILES
119 to 121	Oc1ccc(Oc2ccc(I)cc2)cc1
124 to 126	CC(=O)c1nc2ccc(C)cc2cc1O
212 to 228	CC(C)(C)C(O)C(C(CC#N)c1ccccc1)n1ccnc1 (stereo unspecified)
186 to 187	C[C@]1(COc2ccc(N3CCC(Oc4ccc(OC(F)(F)F)cc4)CC3)nc2)Cn2cc([N+](=O)[O-])nc2O1
138 to 140	CCC(C)(CC)c1nnc(N)s1
159 to 160	N#Cc1cnc2cc(F)c(OCc3ccccc3)cc2c1Cl
213 to 215	Fc1cccc(Cl)c1C1C=C(c2ccc(Cl)cc2)Nc2ncnn21 (stereo unspecified)
68 to 70	CC(=O)Nc1ccc(N=C=S)cc1O
193 to 195	CC(C)N1CCN(Cc2ccc(-c3ccc4c(Nc5ccc(Sc6nccn6C)c(Cl)c5)c(C#N)cnc4c3)cc2)CC1
57.5 to 59.5	CCOC(=O)c1c(C(F)(F)F)nc(C(F)(F)Cl)c(C(=O)OC)c1Cl
222 to 225	COC(=O)CCc1cc(=O)n2nc(C)nc2[nH]1
101 to 102	COC(=O)Cc1ccc(OC)c([N+](=O)[O-])c1
269 to 271	FC(F)(F)Oc1ccc(-c2csc(Nc3cc4ccccc4cn3)n2)cc1
123 to 125	COC(=O)c1ccc(-c2c(C(=O)N(C)Cc3cc(C(F)(F)F)cc(C(F)(F)F)c3)n(C)c(=O)c3ncccc23)cc1
209 to 211	Cn1cnc2nc(Oc3ccccc3)nn2c1=S
136 to 137	OC1CCSC(=S)N1c1ccc(Cl)cn1 (stereo unspecified)

melting point [°C]	SMILES
192 to 193	COc1c(N2CCCC(CN)C2)c(F)cc2c(=O)c(C(=O)O)cn(C3CC3)c12 (stereo unspecified)
210 to 212	O=C1NS(=O)(=O)c2cccc(Cl)c21
227 to 228	CC1Cc2c(n(-c3ccc(Cl)cc3)c3ncccc3c2=O)O1 (stereo unspecified)
111 to 112	CCOC(=O)CNc1ncccc1NC(=O)c1ccccc1OC
194 to 195	Cc1ccc(C(=O)Nc2ccc(CN3CCCCC3)c(C(F)(F)F)c2)cc1-c1ccc2cnncc2c1
100 to 102	CN1CCN(CCc2ccc(Nc3ncc4c(n3)-c3ccccc3C(c3cccc(Br)c3)C4)cc2)CC1 (stereo unspecified)
181 to 183	O=C1NCNC12CCCc1ccccc12 (stereo unspecified)
66 to 68	COc1ccccc1/C(=C/C=C/C(=O)NCCCCc1cccnc1)c1ccccc1
115 to 116	COC(=O)c1ccc2c(=O)c3ccccc3ccc2c1
187 to 189	Cc1cc2c3c(ccc2cc1Br)OC(=O)C3(C)C
234 to 236	O=c1c2cc(F)c(N3CCCC3)cc2n(Cc2ccccc2)c(=O)n1O
158 to 161	O=C(CCCl)N1Cc2cccc3[nH]cc(c23)C1
60 to 62	O=C1C(=O)c2ccccc2C2=C1SCC(CNCc1ccccc1)O2 (stereo unspecified)
124 to 127	O=C(O)Cc1ccc(Oc2ccc(Cl)nn2)cc1
> 300	CCc1nc(N)nc(N)c1N1CCN(c2ccc(C(=O)O)cc2)CC1
